The record followed here is patent US7534456B2, “Agastache rugosa extract and composition containing tilianin isolated and purified from said extract having anti-inflammatory activity and anti-atherogenic activity” (Korea Research Institute of Bioscience and Biotechnology, priority 2001, dated 2009).

Marks after values point to notes of the source that are not given here.

Experiment [1] deals with ICAM-1 expression for THP-1 cells. As to the kind of experiment: Inhibitory activity against TNF-α-induced ICAM-1 expression in THP-1 cells. Format: cell-based, human. As to conditions: 30 μM, TNF-α 10 ng/ml. Here is the method: The following is the process of experiment on inhibitory activity against ICAM-1 expression for THP-1 cells.
THP-1 cells were cultured in CO2 incubator (5% CO2, 95% relative humidity, 37° C.) using RPMI-1640 broth (RPMI-1640, Gibco BRL 23400-021, 1.62%; 0.2% NaHCO3; 1% antimicrobial agents with penicillin and streptomycin mixed) with 10% fetal bovine serum (Gibco BRL 26140-079, FBS) added to the culture media. Samples for test were melted in DMSO, diluted with phosphate buffered saline solution (PBS) to below 5% and added to reactive solution by 5%, so as to set the concentration of DMSO with samples melted therein not to exceed 0.25% in the final solution. 200 μl of THP-1 cells (2.5×10^5 cells/ml) was divided into each well of 96-well with addition of 10 μl of solution prepared at constant concentration. After culturing it in 37° C. CO2 incubator for 1 hour, TNF-α (final concentration: 10 ng/ml) was added to induce ICAM-1 expression and it was cultured in CO2 incubator for 16 more hours. The reactive solution was made to isolate nonspecific bonding part by adding 25 μl of glutaraldehyde buffer solution (glutaraldehyde 2.08% in PBS) to set cells at well, washing it with PBST (0.005% tween-20 in PBS) and adding 3% skim milk. […] Then, the inhibition ratio of the expression by samples was calculated after measuring absorbance at 490 nm and ICAM-1 expression of THP-1 cells by TNF-α.

For experiment [2], the system named is atherosclerotic lesion. As to the kind of experiment: Inhibitory activity against atherosclerotic lesion in LDLR−/− mice on high cholesterol diet. Format: in vivo. As to conditions: 1.0% in high cholesterol diet, 8 weeks. An excerpt:
The process of experiment on inhibitory activity of atherosclerotic lesion described in detail is as follows. Step I) Mouse Breeding and Experiment on Administration of the Extract of […] rugosa to the Mouse […] During the experiment, the mice had free access to water and food. Step II) Measurement of Atherosclerotic Lesion Models After 8 weeks of experiment, the blood was gathered through the eyes of all mice. Then, PBS ([…]) was flowed through the heart and the artery of mice for 10 minutes and subsequently paraformaldehyde was flowed through for 5 minutes. […] Six frozen sections (9 μm each), prepared beginning from the area of artery using microtome maintaining low temperature (-20° C.), were stained with Oil red O and counter-stained with Harris hematoxylin. These stained sections were then quantified by computer-assisted morphometry and the average lesion size was calculated for each animal group. In this manner, inhibitory activity against sample group's lesion according to outbreak of control group's lesion was calculated.

Take `C[C@@H]1C[C@H]2[C@@H]3CCC4=CC(=O)C=C[C@]4(C)[C@@]3(F)[C@@H](O)C[C@]2(C)[C@@]1(O)C(=O)CO` [Dexamethasone, dexamethasone, reference compound]: in experiment [1], the “Inhibitory activity of ICAM-1 expression (%)” value came out at 40.1 ± 1.7%.

Regarding `CC[C@H](C)C(=O)O[C@H]1C[C@@H](C)C=C2C=C[C@H](C)[C@H](CC[C@@H]3C[C@@H](O)CC(=O)O3)[C@H]21` [Lovastatin, lovastatin, reference compound], the “Lesion size (μm^2)” value in experiment [2] worked out at 291442.0 ± 96927.8 μm^2. Moreover, the “Inhibitory activity (%) against atherosclerotic lesion” value in experiment [2] (vs control group) is on record as 50.9*** %.
